Results: US20060183189A1, “Regulatable gene expression in mammalian cells and mammals” (priority 2003, published 2006)

How the values were obtained:
[1] = molecular target: T1, AlcR (Emericella nidulans, UniProt P21228); assay: Gas-phase controlled SEAP expression of stable CHO-K1-derived cell line in a bioreactor; assay type: cell-based, Aspergillus nidulans; settings: 2.5 L bioreactor, gassing in air containing 340 ppm acetaldehyde, then 40 ppm; shut down by sparging with pure air
T1 construct: excising alcR (EcoRI/SalI) from an alcR cDNA containing vector; expressed in transfected cells; host or cells: CHO-K1
T1 sequence (P21228 whole entry): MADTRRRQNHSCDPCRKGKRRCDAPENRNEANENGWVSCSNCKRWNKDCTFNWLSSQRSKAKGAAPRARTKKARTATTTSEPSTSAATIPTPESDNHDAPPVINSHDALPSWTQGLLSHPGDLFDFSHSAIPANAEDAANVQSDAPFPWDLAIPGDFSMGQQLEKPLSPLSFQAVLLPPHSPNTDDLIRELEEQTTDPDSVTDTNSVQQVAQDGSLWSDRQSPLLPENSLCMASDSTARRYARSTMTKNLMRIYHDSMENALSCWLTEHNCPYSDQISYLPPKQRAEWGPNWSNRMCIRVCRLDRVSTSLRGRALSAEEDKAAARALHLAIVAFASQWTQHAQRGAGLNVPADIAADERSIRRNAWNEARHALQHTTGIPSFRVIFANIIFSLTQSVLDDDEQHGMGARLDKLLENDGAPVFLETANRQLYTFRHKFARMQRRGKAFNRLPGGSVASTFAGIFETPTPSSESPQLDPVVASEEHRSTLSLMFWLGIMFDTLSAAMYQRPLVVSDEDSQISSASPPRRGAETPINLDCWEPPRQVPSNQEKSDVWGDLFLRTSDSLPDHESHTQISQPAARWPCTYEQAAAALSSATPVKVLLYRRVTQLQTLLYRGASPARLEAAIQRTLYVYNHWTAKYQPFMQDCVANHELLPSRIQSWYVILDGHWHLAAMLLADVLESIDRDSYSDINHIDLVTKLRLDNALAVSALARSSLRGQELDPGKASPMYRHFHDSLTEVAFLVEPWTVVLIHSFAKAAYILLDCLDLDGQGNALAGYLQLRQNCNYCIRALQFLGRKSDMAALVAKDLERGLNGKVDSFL
Text: A stable CHO-K1-derivative engineered for acetaldehyde-inducible SEAP expression is cultivated in a bioreactor. […] The specific SEAP productivities (μU/10^6 cells/h) are indicated over time (h).
A CHO-K1-derived cell line is constructed for gas-inducible expression of a secreted alkaline phosphatase (SEAP) by stable transfection/transduction with plasmid pWW192 (see Example 1) and a pWW506-based viral particle (see Example 4).

[2] = molecular target: T2, AlkS (Ectopseudomonas oleovorans, UniProt P17051); assay: AlkS-based regulatable SEAP expression in CHO-K1 cells; assay type: cell-based, Pseudomonas putida (oleovorans); settings: CHO-K1 cells transfected with AlkS and PSV40 promoter with 8 OP repeats; upon addition of regulating compound
T2 construct: expressed in transfected cells; host or cells: CHO-K1
T2 sequence (P17051 whole entry): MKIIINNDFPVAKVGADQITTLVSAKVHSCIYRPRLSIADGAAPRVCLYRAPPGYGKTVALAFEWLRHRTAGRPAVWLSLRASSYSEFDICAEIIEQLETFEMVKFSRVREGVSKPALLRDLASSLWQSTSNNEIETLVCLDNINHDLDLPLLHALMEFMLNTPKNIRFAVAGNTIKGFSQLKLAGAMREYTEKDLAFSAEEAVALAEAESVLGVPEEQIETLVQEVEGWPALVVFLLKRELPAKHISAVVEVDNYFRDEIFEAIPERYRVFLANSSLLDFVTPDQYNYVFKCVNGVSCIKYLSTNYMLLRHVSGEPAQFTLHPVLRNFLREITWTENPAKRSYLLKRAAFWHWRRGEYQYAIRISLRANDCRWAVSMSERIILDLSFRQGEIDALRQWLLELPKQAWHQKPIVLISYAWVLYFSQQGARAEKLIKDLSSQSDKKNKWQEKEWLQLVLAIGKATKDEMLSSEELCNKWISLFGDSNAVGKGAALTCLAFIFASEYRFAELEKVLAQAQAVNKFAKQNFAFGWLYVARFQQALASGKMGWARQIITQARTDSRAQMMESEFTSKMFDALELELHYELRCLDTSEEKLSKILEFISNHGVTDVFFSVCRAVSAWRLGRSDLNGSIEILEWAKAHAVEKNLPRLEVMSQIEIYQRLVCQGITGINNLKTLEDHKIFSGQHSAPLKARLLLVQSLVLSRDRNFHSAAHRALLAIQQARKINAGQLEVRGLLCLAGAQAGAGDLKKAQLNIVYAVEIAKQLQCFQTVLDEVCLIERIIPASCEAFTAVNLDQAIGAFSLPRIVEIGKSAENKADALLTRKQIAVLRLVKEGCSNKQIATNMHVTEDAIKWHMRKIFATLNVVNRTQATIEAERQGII
Text: A regulatable expression system responsive to liquid or gaseous inducers based on bacterial elements is constructed by PCR-cloning the Pseudomonas putida (oleovorans)-derived RTF AlkS (Smiths et al., 2001. Plasmid 46, 16-24) into the mammalian expression vector pEF6V5-His TOPO (Invitrogen, Carlsbad, Calif.). The responsive promoter is constructed by cloning 8 repeats of the AlkS-specific OP site downstream of the simian virus 40 promoter PSV40 followed by a reporter gene, the secreted alkaline phosphatase SEAP.
Transfection of the plasmids encoding AlkS and the responsive promoter controlling SEAP expression in CHO-K1 cells results in SEAP expression levels typical for PSV40-driven constitutive expression.

Structure (SMILES) | SEAP expression [1] | SEAP expression [2]
CC=O [acetaldehyde] | induced | 
O=C(C1CC1)C1CC1 [dicyclopropylketone] |  | decreases in a dose-dependent manner
CCOC(C)=O [ethyl acetate] |  | decreases in a dose-dependent manner
CCOCC [ethyl ether] |  | decreases in a dose-dependent manner
